# Results taken from US20110162097A1, “NUCLEOTIDE SEQUENCE ENCODING AN ALCOHOL DEHYDROGENASE FROM ARTEMISIA ANNUA AND USES THEREOF” (priority 2008, published 2011).
# Assays:
# Plasmodium falciparum = settings: reported to be more active than artesunate; cited from earlier work
# [1] = molecular target: T1, ADH1 (Artemisia annua alcohol dehydrogenase) (Artemisia annua, UniProt A0A2U1Q018, G20S/L19S/V78I); assay: Specific ADH1 activity enzyme assay (crude protein from E. coli, NAD+, GC/MS analysis); assay type: biochemical; settings: 1 mM NAD+, 0.1 μg/μl substrate, approximately 90 μg crude protein, 30° C., 30 minutes
# T1 construct: 6xHis (N-terminal tag and attB linker encoded by pDEST17); made in house; host or cells: E. coli Rosetta (DE3)
# T1 sequence (A0A2U1Q018 whole entry L19S/G20S/V78I): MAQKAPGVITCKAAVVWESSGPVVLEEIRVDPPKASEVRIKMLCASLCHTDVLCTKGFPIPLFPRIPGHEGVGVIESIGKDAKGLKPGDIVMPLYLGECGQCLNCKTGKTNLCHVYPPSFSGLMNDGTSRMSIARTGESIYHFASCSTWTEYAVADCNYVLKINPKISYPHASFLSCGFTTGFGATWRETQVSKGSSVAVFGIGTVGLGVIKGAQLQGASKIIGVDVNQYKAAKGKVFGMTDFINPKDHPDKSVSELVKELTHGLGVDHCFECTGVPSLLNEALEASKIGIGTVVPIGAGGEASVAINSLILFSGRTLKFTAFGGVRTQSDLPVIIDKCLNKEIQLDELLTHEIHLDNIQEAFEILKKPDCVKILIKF
# Procedure: The Gateway vector pDEST17 had the Adh1 gene inserted and was subsequently transformed into a competent expression E. coli strain Rosetta (DE3). These cells were grown overnight in 3 ml of LB broth amended with 100 μg/ml ampicillin. An aliquot of 1 ml overnight culture was sub cultured to 100 ml of fresh LB broth also amended with 100 μg/ml of ampicillin. The culture was incubated at 37° C. until the optical density reached 0.8 at 600 nm. A final concentration of 1 mM IPTG was then added to the culture and the flask was incubated at 30° C. for another 4 hours. Cells were harvested by centrifugation at 10,000 rcf for 10 minutes. Pelleted cells were resuspended in 20 mM sodium phosphate pH 7.4 and 500 mM NaCl. Cell walls were disrupted by sonication on ice at intervals of 0.7 seconds for 1 minute, followed by a 1 minute cool down this was repeated three times. The sonicated cells were centrifuged at 10,000 rcf for 10 minutes; the supernatant which contained the soluble ADH1 was concentrated and desalted by spin dialysis (using Amicon Ultra-15 devices; Millipore, Mass.), and stored in a new tube at 4° C. This method of recombination and expression was also used for a control plasmid pDEST17-gus.
# Enzyme assay was prepared to determine the specific activity of ADH1. […]
SMILES,activity relative to artesunate (Plasmodium falciparum),oxidation of substrate by ADH1 (product observed by GC/MS) [1]
C[C@H]1[C@H](N2CCS(=O)(=O)CC2)O[C@@H]2O[C@@]3(C)CC[C@H]4[C@H](C)CC[C@@H]1[C@@]24OO3 [Artemisone],10-30 fold,
C=C(CO)[C@@H]1CC[C@@H](C)[C@@H]2CCC(C)=C[C@@H]21 [artemisinic alcohol],,presence of product artemisinic aldehyde
"CC1=C[C@H]2[C@@H](CC1)[C@H](C)CC[C@H]2[C@@H](C)CO [dihydroartemisinic alcohol, (11R)-dihydroartemisinic alcohol]",,no observed product
